Experimental data reported in paper PMC10488193, “Evaluation of the Chemical Stability, Membrane Permeability and Antiproliferative Activity of Cyclic Diarylheptanoids from European Hornbeam (Carpinus betulus L.)” (International Journal of Molecular Sciences, 2023).
Read-outs that look alike come from different tables or passages of the source. Each block holds one compound with its values, some of them ahead of it.

Tests used:
[1] = design: method as in PMID 28074653; settings: ambient temperature, solvolysis and oxidative degradation; cited from earlier work
[2] = tested on: A2058 (melanoma, derived from metastatic site: lymph node); assay: In vitro antiproliferative activity, Alamar Blue assay; format: cell-based; settings: Homo sapiens
Experimental: (§1) For the experiments, the following human cell lines were used: A2058 (melanoma, derived from metastatic site: lymph node), HepG2 (hepatocellular carcinoma), U87 (glioblastoma), HT-29 (colorectal carcinoma) and HL-60 (acute promyelocytic leukaemia). Cell lines were generous gifts from Dr. […] (Department of Experimental Pharmacology, National Institute of Oncology, Budapest, Hungary). […] The cultures were maintained at 37 °C in a humidified atmosphere with 5% CO2. The cells were grown to confluency and then divided into 96-well tissue culture plates (Sarstedt, Nümbrecht, Germany) with an initial cell number of 5000 cells/well. Cells were incubated at 37 °C in a 5% CO2 humidified atmosphere overnight. Before the assay, 50 μL of the supernatant was removed and replaced with a 50 μL serum-free medium (SFM). […] The cells were treated for 24 h with the compounds and negative control cells (no compound control) were treated with SFM only (incubated at 37 °C). […] The percentage of cytostasis was calculated with the following equation: […] Data were evaluated with Excel (version: 365; Microsoft, Redmond, WA, USA) and the curves were defined using Microcal OriginPro (version: 2018; OriginLab, Northampton, MA, USA) software. In each case, two independent experiments were carried out with four parallel measurements and the mean IC50 values together with ±SD were represented. The Excel (version: 365) (Microsoft, Redmond, WA, USA) and Microcal OriginPro (version: 2018) (OriginLab, Northampton, MA, USA) softwares were used for data evaluation.

[3] = tested on: HL-60 (acute promyelocytic leukaemia); assay: as above; format: cell-based; settings: Homo sapiens
Experimental: as §1

[4] = tested on: HT-29 (colorectal carcinoma); assay: as above; format: cell-based; settings: Homo sapiens
Experimental: as §1

[5] = tested on: HepG2 (hepatocellular carcinoma); assay: as above; format: cell-based; settings: Homo sapiens
Experimental: as §1

U87 (glioblastoma) = assay: as above; format: cell-based; settings: Homo sapiens, read-out: IC50 ± SD
Experimental: as §1

[6] = cited from earlier work
[7] = A2058, 24 h treatment, then three days culture, n = 2, read-out: IC50 ± SD
[8] = HepG2, 24 h treatment, then three days culture, n = 2, read-out: IC50 ± SD
[9] = U87, 24 h treatment, then three days culture, n = 2

SMILES: COc1cc(/C=C/C(=O)CC(=O)/C=C/c2ccc(O)c(OC)c2)ccc1O [Curcumin, curcumin]
half-life [1]: less than an hour

SMILES: COc1cccc2c1C(=O)c1c(O)c3c(c(O)c1C2=O)C[C@@](O)(C(C)=O)C[C@@H]3O[C@H]1C[C@H](N)[C@H](O)[C@H](C)O1 [Dau, daunomycin, reference compound]
IC50 ([2]; A2058, read-out: IC50 ± SD): 0.16 µM
IC50 ([3]; HL-60, read-out: IC50 ± SD): 0.02 ± 0.01 µM
IC50 ([4]; HT-29, read-out: IC50 ± SD): 0.2 ± 0.01 µM
IC50 ([5]; HepG2, read-out: IC50 ± SD): 1.2 ± 0.2 µM
IC50 (U87 (glioblastoma)): 0.4 ± 0.05 µM

IC50 [2, 7]: 8.9 ± 0.2 µM
IC50 ([4]; HT-29, 24 h treatment, then three days culture, n = 2, read-out: IC50 ± SD): 18.5 ± 1.7 µM
IC50 [5, 8]: 20.9 ± 1.2 µM
IC50 (U87 (glioblastoma); [9]): 27 ± 2.3 µM
SMILES: COc1cc([C@@H]2c3cc4c(cc3[C@@H](O[C@@H]3O[C@@H]5CO[C@@H](C)O[C@H]5[C@H](O)[C@H]3O)[C@H]3COC(=O)[C@H]23)OCO4)cc(OC)c1O [Etoposide, etoposide, reference compound]

SMILES: O=C(/C=C/CCc1ccc(O)c(O)c1)CCc1ccc(O)c(O)c1 [Hirsutenone, hirsutenone]
half-life ([6]; aqueous solution, 25 °C): 139 h
half-life ([6]; aqueous solution, 50 °C): 38.2 h
half-life ([6]; room temperature): less than seven days

IC50 [2, 7]: 6.8 ± 1.2 µM
IC50 ([3]; HL-60, 24 h treatment, then three days culture, n = 2, read-out: IC50 ± SD): 4.5 ± 0.7 µM
IC50 [5, 8]: 5.8 ± 0.7 µM
IC50 (U87 (glioblastoma); [9]): 0.8 ± 0.3 µM
SMILES: O=C(Nc1ccc(C(F)(F)F)cc1)c1cc(Cl)ccc1O [Sal, 5-chloro-2-hydroxy-N-[4-(trifluoromethyl)phenyl]benzamide, reference compound]
